Measurements as given in article PMC7838189, “Natural podophyllotoxin analog 4DPG attenuates EMT and colorectal cancer progression via activation of checkpoint kinase 2” (Cell Death Discovery, 2021).
Several values for one entry are separate records, joined by “and”; a condition that tells them apart may be missing. Equal values may be shown once.

Key:
SW-620/5-FU-R cells = experiment: Western blotting of Chk2 and EMT markers after 4DPG; format: cell-based; details: 48 h
Excerpt: (§1) 4DPG, a podophyllotoxin class of natural product anticancer compound (Supplementary Fig. S2A) has been recently described by our research group for its potent antitumor and anti-metastatic properties against aggressive cancers[31],[32]. Further, 4DPG augments phosphorylation and activation of Chk2 (Thr68) leading to suppression of EMT and invasiveness of p53-defective cancer cells. To investigate the effect of 4DPG on phosphorylation and expression levels of Chk2 in HCT-116/5-FU-R, SW-620/5-FU-R, and HT-29/5-FU-R cells, we treated these cells for 48 h with increasing concentrations of the compound, and whole-cell lysates were subjected to western blotting analysis. […] To determine the effect of 4DPG on the invasion abilities of these 5-FU-R cells, we performed in situ fluorescent gelatin degradation assay following our pre-standardized protocol[31],[37]. In physiological conditions, this assay mimics the extracellular matrix degradation by aggressive tumor cells undergoing invasion–metastasis process.
(§2) Fig. 2 4DPG activates Chk2 and attenuates EMT in 5-FU-R CRC cells. A Western blotting analysis results portraying protein expression of p-Chk2 (Thr68) and Chk2 in HCT-116/5-FU-R and SW-620/5-FU-R cells in response to increasing concentrations of 4DPG, treated for 48 h. β-Actin expression was considered as endogenous loading control. B Densitometry analysis showing relative protein expression of western blot bands presented above. n = 3, error bars: mean ± SD; ***P < 0.001. C Western blots depicting protein expression of EMT markers in HCT-116/5-FU-R and SW-620/5-FU-R cells in response to increasing concentrations of 4DPG, treated for 48 h. β-Actin expression was considered as endogenous loading control. […] E Immunocytochemistry results displaying the protein expression levels of Vimentin in HCT-116/5-FU-R and SW-620/5-FU-R cells, treated with vehicle and/or 4DPG (300 nM) for 48 h. Scale bars: 50 µm. F In situ fluorescent gelatin degradation assay results showing the invadopodia/footprints of invaded SW-620/5-FU-R cells treated with vehicle and/or 4DPG at the indicated concentration for 48 h. Blue stains over the green background display DAPI staining of nuclei of cells. G Quantification of the area of degradation through Image J software. n = 3, error bars, mean ± SD; ***P < 0.001.
(§3) We adhered to the previously published protocol for western blotting. To sum up, cells were exposed to the respective treatments (mentioned in figure legends). Post-treatment, cells were lysed with cell lysis buffer, and cell lysates were collected after centrifugation. Bradford assay was performed to quantify the protein concentration. Equal amount of protein was taken from each sample to carry out the western blot analysis. SDS-PAGE was employed to separate the proteins that were later transferred onto PVDF membranes (Millipore, Billerica, MA). Next, the membranes were blocked with 5% skim milk and subsequently incubated with the specific primary antibodies (1:1000 dilution), either for 3 h at room temperature or overnight at 4 °C. Later, the blots were washed thoroughly with TBST and probed with the respective secondary antibodies (1:2000 dilution) coupled with horseradish peroxidase for 1 h. Following thorough washing, the membranes were visualized using enhanced chemiluminescence reagent (Millipore) and captured onto Biomax light film (The Eastman Kodak Co., Rochester, NY).

HCT-116/5-FU-R cells = experiment: as above; format: cell-based; details: 48 h
Excerpt: as §1, §2, §3

[1] = Pharmacokinetic study, single i.v. dose; format: in vivo; details: 5 mg/kg i.v. single dose, Balb/c mice
Procedure: Subsequently, to evaluate the exposure of 4DPG in healthy animals, we performed PK analysis in Balb/c mice by administering a single dose (5 mg/kg) of the compound intravenously.
The PK studies were performed following our standardized procedure with minor modifications. To determine the PK profile of 4DPG, healthy male Balb/c mice (body weight 25–30 g each) were employed in the study. Six animals were enrolled for each sampling time point and a total of 11 time points (0.083, 0.25, 0.5, 1, 2, 4, 6, 8, 12, 16, and 24 h) were involved in the study. Control group of mice were administered with saline and test groups of animals received a single dose of 4DPG (5 mg/kg, body weight) intravenously. After the successful injections of the molecule, 100 µL of plasma was collected from each animal enrolled at the above sampling time points and the plasma proteins were precipitated with 400 µL of acetonitrile. Following extraction into the solvent and subsequent filtration, the compound was analyzed using a 6410 triple-quadrupole LC–MS/MS system (Agilent Technologies, USA). Individual samples collected at each time point were quantified through single ion monitoring (SIM) by comparing with the standard calibration curve prepared using Agilent Mass Hunter software (version B.04.00) (detailed description is provided in Supplementary information file). Essential PK parameters such as half-life (t1/2), C initial (C0), area under the curve (AUC0–∞), volume of distribution (Vd), clearance (Cl), and mean residence time (MRT) were calculated utilizing noncompartmental pharmacokinetic data analysis.

[2] = system: tumor tissues of orthotopic rat colorectal carcinoma; experiment: Immunohistochemical analysis of tumor tissues; format: in vivo, Wistar rats; details: 25 mg/kg, vs saline-treated group
Procedure: The procedure was performed following our pre-standardized protocol with minor modifications. Paraffin-embedded tissue sections were prepared from the tumors of saline, 5-FU, and 4DPG-treated groups of animals. Primary antibodies used: p-Chk2 (T68), Chk2, p53, p-Vimentin (S38) and Vimentin at 1:150 dilution for overnight at 4 °C.

[3] = increasing concentrations, immunoblot

**Q.** With `COc1cc([C@@H]2c3cc4c(cc3C[C@H]3COC(=O)[C@@H]32)OCO4)cc(OC)c1O[C@@H]1O[C@H](CO)[C@@H](O)[C@H](O)[C@H]1O` [4DPG, 4′-demethyl-deoxypodophyllotoxin glucoside] as the compound, how does the “increase in p-Chk2 (Thr68) level” value (SW-620/5-FU-R cells; 300 nM (sub-toxic), vs vehicle) read?
**A.** The value was 11.2 fold.

**Q.** And the “expression of Chk2 (total)” value (SW-620/5-FU-R cells; vs vehicle)?
**A.** The value was “did not alter significantly”.

**Q.** And the “amplification of E-cadherin” value (SW-620/5-FU-R cells; increasing concentrations)?
**A.** Its value is no more than 10.2 fold.

**Q.** And the “amplification of TIMP-1” value (SW-620/5-FU-R cells; increasing concentrations)?
**A.** The value was no more than 7.2 fold.

**Q.** And the “p-Vimentin (ser38), Vimentin, Twist1 and MMP-2 expression” value (SW-620/5-FU-R cells; [3])?
**A.** Its value is “remarkable downregulation”.

**Q.** What about the “increase in p-Chk2 (Thr68) level” value (HCT-116/5-FU-R cells; 300 nM (sub-toxic), vs vehicle) of the same compound?
**A.** Its value is 12 fold.

**Q.** What about the “expression of Chk2 (total)” value (HCT-116/5-FU-R cells; vs vehicle) of the same compound?
**A.** Its value is “did not alter significantly”.

**Q.** And the “amplification of E-cadherin” value (HCT-116/5-FU-R cells; increasing concentrations)?
**A.** Its value is no more than 12.8 fold.

**Q.** And the “amplification of TIMP-1” value (HCT-116/5-FU-R cells; increasing concentrations)?
**A.** Its value is “up to 12.5 fold”.

**Q.** What about the “p-Vimentin (ser38), Vimentin, Twist1 and MMP-2 expression” value (HCT-116/5-FU-R cells; [3]) of the same compound?
**A.** The value was “remarkable downregulation”.

**Q.** And the “Area under curve (AUC0-t)” value [1]?
**A.** Its value is 10068.884 ng·h/mL.

**Q.** What about the “Area under curve (AUC0-∞)” value [1] of the same compound?
**A.** The value was 10104.05 ng·h/mL and 10104.053 ng·h/mL.

**Q.** And the “Clearance (Cl)” value [1]?
**A.** The value was 8.25 mL/min/kg.

**Q.** What about the “Half-life (t1/2)” value [1] of the same compound?
**A.** The value was 39.2 min.

**Q.** And the “Mean residence time (MRT)” value [1]?
**A.** The value was 18.4 min.

**Q.** What about the “Volume of distribution (Vd)” value [1] of the same compound?
**A.** Its value is 0.466 L/kg.

**Q.** And the “C initial (C0)” value ([1]; plasma)?
**A.** The value was 10165.18 ng/mL.

**Q.** And the “p-Vimentin (ser38) and Vimentin expression levels in tumor tissues (immunohistochemistry)” value [2]?
**A.** The value was “decreased”.

**Q.** And the “protein levels of p-Chk2 (Thr68) and p53 in tumor tissues (immunohistochemistry)” value [2]?
**A.** The value was “marked increase”.
